pIC50: −log10 of the molar value.

The target of this test is EP4 (Homo sapiens, UniProt P35408). Briefly: EP4 Antagonism by CRE-PLAP Reporter Assay (SE302 cells, PGE2-stimulated). Type of test: cell-based. Set-up: HEK293 cells express endogenous EP4; endogenous in cells; host or cells: SE302 (HEK293 clone with CRE-PLAP reporter). The following applies: SE302 (HEK293) cells, 3 ng/mL PGE2, overnight; single or multiple assay average values. An excerpt: PGE2 and [^3H]-labelled PGE2 were purchased from Cayman Chemical (Ann Arbor, Mich.) and Perkin Elmer (Waltham, Mass.), respectively. Mouse breast 4T1 cells (CRL-2539) were obtained from American Tissue Culture Collection. SE302 cell line is a clone of the HEK293 cells containing cAMP response element (CRE) promoter that when activated drives secretion of placental-like alkaline phosphatase (PLAP). HEK293 cells express endogenous EP4 and show induction of PLAP in response to PGE2 and EP4 agonists, but not EP1, 2 or 3 agonists (Chen Q, Muramoto K, Masaaki N, Ding Y, Yang H, Mackey M, Li W, Inoue Y, Ackermann K, Shrota H, Matsumoto I, Spyvee M, Schiller S, Sumida T, Gusovsky F, and Lamphier M. A novel antagonist of the prostaglandin E2 EP4 receptor inhibits Th1 differentiation and Th17 expansion and is orally active in arthritis models. British J Pharmacol, 2010, 160: 292-310). BalB/C female mice at 7-8 week age were purchased from Jackson Laboratory (Bar Harbor, Me.). Mice were maintained under specific pathogen-free conditions.
EP4 Antagonism by CRE-PLAP Reporter Assay: SE302 cells were maintained in DMEM/F12 (50:50) (MediaTech) supplemented with 10% FBS (Tissue Culture Biologicals) plus penicillin/streptomycin. When used for assays, cells were plated in a 96-well plate at 2×10^4 cells/100 μL/well in serum-free assay medium (DMEM/F12 supplemented with 0.1% BSA plus penicillin/streptomycin) and incubated for 4-6 h. Cells were then stimulated with 3 ng/mL of PGE2 in the presence or absence of various concentrations of test compound overnight, and PLAP activity was measured by mixing 15 μL of culture supernatants with 75 μL of Lumi-phos (Lumigen, Inc.) and 60 μL of assay buffer containing 8 mmol/L MgSO4 in 0.1 mol/L carbonate-bicarbonate buffer pH11 in a new 96-well black plate and incubated for 2 h at room temperature. The intensity of luminescence, which reflected the PLAP activity in the supernatant, was quantified with an Envision 2101 Multilabel Reader. Values obtained from DMSO treated samples in the presence of PGE2 were defined as 100% of control, whereas values obtained from DMSO treated samples in the absence of PGE2 were defined as 0% of control. % of control for compound treated samples was calculated as follows: (actual reading−0% of control)/(100% of control−0% of control)×100. IC50 value for each individual experiment was calculated using GraphPad Prism 6.02 (Lake Forest, Calif.) with % of control values.
Compounds of the present invention were assayed according to the methods as described above, and IC50 values, which may be single assay values or multiple assay average values, are summarized in Table 1. Compounds marked “ABS” show absolute stereochemistry.
In general terms: In a reporter assay the amount or activity of a reporter protein is the signal.

EP4, sequence (P35408 whole entry): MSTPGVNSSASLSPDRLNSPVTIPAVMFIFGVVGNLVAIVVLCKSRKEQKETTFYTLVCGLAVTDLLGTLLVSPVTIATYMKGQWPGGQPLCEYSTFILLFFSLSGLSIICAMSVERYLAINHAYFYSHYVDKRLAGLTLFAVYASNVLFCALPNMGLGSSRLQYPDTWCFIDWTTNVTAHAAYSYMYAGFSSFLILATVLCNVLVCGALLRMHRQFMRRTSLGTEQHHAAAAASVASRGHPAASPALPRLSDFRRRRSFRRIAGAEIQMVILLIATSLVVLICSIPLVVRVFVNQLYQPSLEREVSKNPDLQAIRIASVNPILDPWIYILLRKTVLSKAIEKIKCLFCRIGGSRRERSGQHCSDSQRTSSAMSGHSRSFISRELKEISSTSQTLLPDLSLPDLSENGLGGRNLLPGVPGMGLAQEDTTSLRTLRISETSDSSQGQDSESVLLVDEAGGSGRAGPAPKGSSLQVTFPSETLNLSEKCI

What is called pIC50 is the negative decadic logarithm of the IC50, by convention in mol/L. Read a low pIC50 as a high IC50. For `COC(=O)c1ccc([C@H](C)NC(=O)c2c(C(F)(F)F)nn3c2N(Cc2cccc(C(F)(F)F)c2)CC3)cc1F` [Compound 24, Methyl (S)-2-fluoro-4-(1-(6-(trifluoromethyl)-1-(3-(trifluoromethyl)benzyl)-2,3-dihydro-1H-imidazo[1,2-b]pyrazole-7-carboxamido)ethyl)benzoate], the pIC50 was 8.09.

Turning to `C[C@H](NC(=O)c1c(C(F)(F)F)nn2c1N(Cc1cccc(C(F)(F)F)c1)CC2)c1ccc(C(=O)O)c(F)c1` [Compound 25, (S)-2-fluoro-4-(1-(6-(trifluoromethyl)-1-(3-(trifluoromethyl)benzyl)-2,3-dihydro-1H-imidazo[1,2-b]pyrazole-7-carboxamido)ethyl)benzoic acid], the pIC50 was 8.96.

For the compound `C[C@H](NC(=O)c1c(C(F)(F)F)nn2c1N(Cc1cccc(C(F)(F)F)c1)CC2)c1ccc(CC(=O)O)cc1` [Compound 26, (S)-2-(4-(1-(6-(trifluoromethyl)-1-(3-(trifluoromethyl)benzyl)-2,3-dihydro-1H-imidazo[1,2-b]pyrazole-7-carboxamido)ethyl)phenyl)acetic Acid], the pIC50 is 8.45.

The compound `C[C@H](NC(=O)c1c(C(F)(F)F)nn2c1N(Cc1ccc(C(F)(F)F)cc1)CC2)c1ccc(CC(=O)O)cc1` [Compound 27, (S)-2-(4-(1-(6-(trifluoromethyl)-1-(4-(trifluoromethyl)benzyl)-2,3-dihydro-1H-imidazo[1,2-b]pyrazole-7-carboxamido)ethyl)phenyl)acetic Acid] showed a pIC50 of 8.15. This pIC50 is 0.30 log units lower than that of the compound before.

`Cc1nn2c(c1C(=O)NC1(c3ccc(C(=O)O)cc3)CC1)N(Cc1ccc(C(F)(F)F)cc1)CC2` [Compound 28, 4-(1-(6-methyl-1-(4-(trifluoromethyl)benzyl)-2,3-dihydro-1H-imidazo[1,2-b]pyrazole-7-carboxamido)cyclopropyl)benzoic Acid] gave a pIC50 of 8.06.

For `O=C(O)c1ccc(C2(NC(=O)c3c(C(F)(F)F)nn4c3N(Cc3ccc(C(F)(F)F)cc3)CC4)CC2)cc1` [Compound 29, 4-(1-(6-(trifluoromethyl)-1-(4-(trifluoromethyl)benzyl)-2,3-dihydro-1H-imidazo[1,2-b]pyrazole-7-carboxamido)cyclopropyl)benzoic Acid], the pIC50 was 8.66.

Consider `O=C(O)c1ccc(C2(NC(=O)c3c(C(F)(F)F)nn4c3N(Cc3ccc(Cl)cc3)CC4)CC2)cc1` [Compound 30, 4-(1-(1-(4-chlorobenzyl)-6-(trifluoromethyl)-2,3-dihydro-1H-imidazo[1,2-b]pyrazole-7-carboxamido)cyclopropyl)benzoic Acid], for which the pIC50 was 8.87. This pIC50 is 0.21 log units higher than that of the compound before.

For the compound `C[C@H](NC(=O)c1c(C(F)(F)F)nn2c1N(Cc1ccc(Cl)cc1)CC2)c1ccc(C(=O)O)cc1` [Compound 31, (S)-4-(1-(1-(4-chlorobenzyl)-6-(trifluoromethyl)-2,3-dihydro-1H-imidazo[1,2-b]pyrazole-7-carboxamido)ethyl)benzoic Acid], the pIC50 was 9.00.

Take `Cc1nn2c(c1C(=O)N[C@@H](C)c1ccc(C(=O)O)cc1)N(Cc1ccc(Cl)cc1)CC2` [Compound 32, (S)-4-(1-(1-(4-chlorobenzyl)-6-methyl-2,3-dihydro-1H-imidazo[1,2-b]pyrazole-7-carboxamido)ethyl)benzoic Acid]: the negative logarithm of the IC50 (pIC50) is 8.37.

For the compound `Cc1nn2c(c1C(=O)NCc1ccc(C(=O)O)cc1)N(Cc1ccc(Cl)cc1)CC2` [Compound 33, 4-((1-(4-chlorobenzyl)-6-methyl-2,3-dihydro-1H-imidazo[1,2-b]pyrazole-7-carboxamido)methyl)benzoic Acid], the pIC50 is 7.56.

Turning to `Cc1nn2c(c1C(=O)NC1(c3ccc(C(=O)O)cc3)CC1)N([C@H](C)c1ccc(C(F)(F)F)cc1)CC2` [Compound 34, (R)-4-(1-(6-methyl-1-(1-(4-(trifluoromethyl)phenyl)ethyl)-2,3-dihydro-1H-imidazo[1,2-b]pyrazole-7-carboxamido)cyclopropyl)benzoic Acid], the pIC50 was 8.04.

The values above are taken from patent publication US11434246B2, “EP4 antagonists” (Eisai R&D Management Co., Ltd., priority 2015, dated 2022).
